Measured values published in EP1215499A1 (priority 1999, dated 2001).
*1 amine or outer side, *2 acyl side, *3 side chain or, on linkers, in order; H or OH if unused. Where a SMILES comes first, the peptide text is derived from it. [ ]: non-standard residue; d: D form. The star is where a group is joined. Sta = CC(C)C[C@H](N)[C@@H](O)CC(=O)O; AMC = Cc1cc(=O)oc2cc(N*)ccc12; Suc = O=C(CCC(=O)[*:2])[*:1]; Isovaleryl = CC(C)CC(=O)*; Boc = CC(C)(C)OC(=O)*

Experiments:
Format in all cases: biochemical
[1] = target: T1, miniplasmin (Homo sapiens, UniProt P00747); assay: biochemical
T1 construct: 38kDa (Kringle 5 + L chain); the 12kDa protein of human miniplasmin includes a kringle 5 that begins with V^441; host or cells: no expression host
T1 sequence (P00747 481-560): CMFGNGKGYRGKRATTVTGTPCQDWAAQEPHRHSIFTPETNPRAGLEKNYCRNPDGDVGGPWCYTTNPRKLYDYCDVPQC
T1 sequence (P00747 581-810): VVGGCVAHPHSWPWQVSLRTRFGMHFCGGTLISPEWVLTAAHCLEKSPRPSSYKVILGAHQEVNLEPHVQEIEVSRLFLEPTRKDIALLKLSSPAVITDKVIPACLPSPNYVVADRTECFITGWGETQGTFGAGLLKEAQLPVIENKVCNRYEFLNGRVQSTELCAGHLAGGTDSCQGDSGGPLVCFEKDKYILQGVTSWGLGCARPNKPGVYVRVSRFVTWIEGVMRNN

[2] = target: T1, miniplasmin; assay: Substrate specificity of human miniplasmin (cleavage of fluorescent MCA synthetic substrates); conditions: for Activity (mU/ml): cleavage of the named substrate by human miniplasmin; for cleaving activity of miniplasmin toward the substrate: result in words
Experimental: 2. […] Miniplasmin cut the bond after Arg.
Nor did it toward Bz-Arg-MCA, a synthetic substrate for cathepsin B, which is one of lysosomal enzymes.
The activity of miniplasmin was quantified by defining the enzyme activity that can degrade […] of the synthetic substrate Boc-Glu-Ala-Arg-MCA in 1 minute as 1 unit.

[3] = target: T1, miniplasmin; assay: as above; conditions: Boc-Gln-Ala-Arg-MCA = 100%
[4] = target: T1, miniplasmin

## O=S(=O)(F)Cc1ccccc1 [Phenylmethylsulfonyl fluoride]
[1]
  inhibition mark (circle / double circle): ○ Phenylmethylsulfonyl fluoride
[1]; 1000 µM
  Relative activity: 95.1%
[1]; 10000 µM
  Relative activity: 29.5%

## Cc1cc(=O)oc2cc(NC(=O)[C@H](CCCNC(=N)N)NC(=O)[C@H](CCCCN)NC(=O)CNC(=O)OC(C)(C)C)ccc12 [Boc-Gly-Lys-Arg-MCA] (Boc-Gly-Lys-Arg-{AMC})
[2]
  Activity (mU/ml): 3.1 mU/ml

## Cc1cc(=O)oc2cc(NC(=O)[C@H](CCCNC(=N)N)NC(=O)[C@H](C)NC(=O)[C@H](CCC(N)=O)NC(=O)OC(C)(C)C)ccc12 [Boc-Gln-Ala-Arg-MCA] (Boc-Gln-Ala-Arg-{AMC})
[2]
  Activity (mU/ml): 32.3 mU/ml

## Boc-Ile-Gln-Gly-Arg-MCA (Boc-IQGR-{AMC})
[3]
  % (Activity as a percentage of that with Boc-Gln-Ala-Arg-MCA): 4.8%
[2]
  Activity (mU/ml): 1.6 mU/ml
  cleaving activity of miniplasmin toward the substrate: substantially no cleaving activity

## CC(=O)N[C@@H](CC(C)C)C(=O)N[C@@H](CC(C)C)C(=O)N[C@H](C=O)CCCNC(=N)N [Leupeptin]
[1]
  inhibition mark (circle / double circle): ⓞ Leupeptin
[1]; read-out: Relative activity
  activity at 10 µM: 18.6%

## Cc1cc(=O)oc2cc(NC(=O)[C@H](CCCNC(=N)N)NC(=O)c3ccccc3)ccc12 [Bz-Arg-MCA]
[2]
  Activity (mU/ml): 0.0 mU/ml
  cleaving activity of miniplasmin toward the substrate: substantially no cleaving activity

## Cc1cc(=O)oc2cc(NC(=O)[C@H](CCCNC(=N)N)NC(=O)[C@@H]3CCCN3C(=O)CNC(=O)[C@H](C)NC(=O)OC(C)(C)C)ccc12 [Boc-Ala-Gly-Pro-Arg-MCA] (Boc-AGPR-{AMC})
[2]
  Activity (mU/ml): 2.5 mU/ml

## CC(C)CC(NC(=O)C1OC1C(=O)O)C(=O)NCCCCNC(=N)N (centres unmarked) [E-64]
[1]; read-out: Relative activity
  activity at 10 µM: 61.5%

## Cc1cc(=O)oc2cc(NC(=O)[C@H](Cc3ccccc3)NC(=O)[C@@H]3CCCN3C(=O)[C@H](C)NC(=O)[C@H](C)NC(=O)CCC(=O)O)ccc12 [Suc-Ala-Ala-Pro-Phe-MCA] (Suc-AAPF-{AMC})
[2]
  Activity (mU/ml): 0.0 mU/ml

## N=C(N)c1ccccc1 [Benzamidine]
[4]
  transformation of F0 into F1 and F2: substantially prevented
[1]
  inhibition mark (circle / double circle): ○ Benzamidine
[1]; read-out: Relative activity
  activity at 10 µM: 67.6%
  activity at 1000 µM: 22.9%

## Cc1cc(=O)oc2cc(NC(=O)[C@H](CCCNC(=N)N)NC(=O)[C@H](Cc3ccccc3)NC(=O)[C@@H]3CCCN3)ccc12 [Pro-Phe-Arg-MCA] (H-Pro-Phe-Arg-{AMC})
[2]
  Activity (mU/ml): 5.0 mU/ml

## Cc1cc(=O)oc2cc(NC(=O)[C@H](Cc3ccc(O)cc3)NC(=O)[C@@H](NC(=O)[C@H](CC(C)C)NC(=O)[C@H](CC(C)C)NC(=O)CCC(=O)O)C(C)C)ccc12 [Suc-Leu-Leu-Val-Tyr-MCA] (Suc-LLVY-{AMC})
[2]
  Activity (mU/ml): 0.0 mU/ml

## Cc1cc(=O)oc2cc(NC(=O)[C@H](CCCNC(=N)N)NC(=O)[C@H](CCCNC(=N)N)NC(=O)[C@H](CCC(N)=O)NC(=O)OC(C)(C)C)ccc12 [Boc-Gln-Arg-Arg-MCA] (Boc-Gln-Arg-Arg-{AMC})
[2]
  Activity (mU/ml): 16.1 mU/ml

## Cc1cc(=O)oc2cc(NC(=O)[C@H](CCCCN)NC(=O)[C@H](CCCCN)NC(=O)[C@H](CCC(=O)O)NC(=O)OC(C)(C)C)ccc12 [Boc-Glu-Lys-Lys-MCA] (Boc-Glu-Lys-Lys-{AMC})
[2]
  Activity (mU/ml): 50.3 mU/ml
  cleaving activity of miniplasmin toward the substrate: highest cleaving activity

## CC(C)C[C@H](NC(=O)[C@@H](NC(=O)N[C@@H](Cc1ccccc1)C(=O)O)C1CCN=C(N)N1)C(=O)N[C@H](C=O)Cc1ccccc1 (some centres unmarked) [Cymostatin]
[1]; read-out: Relative activity
  activity at 10 µM: 100%

## CC(C)C[C@H](NC(=O)N[C@H](C(=O)N[C@@H](CCC(N)=O)C(=O)N[C@@H](C)C=O)[C@@H]1CCNC(=N)N1)C(=O)O [Elastatinal]
[1]; read-out: Relative activity
  activity at 10 µM: 69.2%

## Cc1cc(=O)oc2cc(NC(=O)[C@H](CCCNC(=N)N)NC(=O)[C@@H]3CCCN3C(=O)[C@@H](NC(=O)OC(C)(C)C)C(C)C)ccc12 [Boc-Val-Pro-Arg-MCA] (Boc-Val-Pro-Arg-{AMC})
[2]
  Activity (mU/ml): 5.0 mU/ml

## Cc1cc(=O)oc2cc(NC(=O)[C@H](CCCNC(=N)N)NC(=O)[C@H](CCCNC(=N)N)NC(=O)[C@H](CC(C)C)NC(=O)OC(C)(C)C)ccc12 [Boc-Leu-Arg-Arg-MCA] (Boc-Leu-Arg-Arg-{AMC})
[2]
  Activity (mU/ml): 3.1 mU/ml

## Cc1cc(=O)oc2cc(NC(=O)[C@H](CCCNC(=N)N)NC(=O)[C@@H](NC(=O)[C@H](CC(C)C)NC(=O)OC(C)(C)C)[C@@H](C)O)ccc12 [Boc-Leu-Thr-Arg-MCA] (Boc-Leu-Thr-Arg-{AMC})
[2]
  Activity (mU/ml): 3.4 mU/ml

## CC(C)C[C@H](NP(=O)(O)O[C@@H]1O[C@@H](C)[C@H](O)[C@@H](O)[C@H]1O)C(=O)N[C@@H](Cc1c[nH]c2ccccc12)C(=O)O [Phosphoramidon]
[1]; read-out: Relative activity
  activity at 10 µM: 100%

## Cc1cc(=O)oc2cc(NC(=O)[C@H](CCCNC(=N)N)NC(=O)CNC(=O)[C@H](CCC(N)=O)NC(=O)OC(C)(C)C)ccc12 [Boc-Gln-Gly-Arg-MCA] (Boc-Gln-Gly-Arg-{AMC})
[2]
  Activity (mU/ml): 8.1 mU/ml

## CC(C)CC(=O)N[C@H](C(=O)N[C@H](C(=O)N[C@@H](CC(C)C)[C@@H](O)CC(=O)N[C@@H](C)C(=O)N[C@@H](CC(C)C)[C@@H](O)CC(=O)O)C(C)C)C(C)C [Pepstatin A] (Isovaleryl-VV[Sta]A[Sta]-OH)
[1]; read-out: Relative activity
  activity at 10 µM: 64%

## Cc1cc(=O)oc2cc(NC(=O)[C@H](CCCNC(=N)N)NC(=O)[C@H](CO)NC(=O)[C@H](Cc3ccccc3)NC(=O)OC(C)(C)C)ccc12 [Boc-Phe-Ser-Arg-MCA] (Boc-Phe-Ser-Arg-{AMC})
[2]
  Activity (mU/ml): 5.0 mU/ml

## Cc1cc(=O)oc2cc(NC(=O)[C@H](CCCCN)NC(=O)[C@H](CC(C)C)NC(=O)[C@@H](NC(=O)OC(C)(C)C)C(C)C)ccc12 [Boc-Val-Leu-Lys-MCA] (Boc-Val-Leu-Lys-{AMC})
[3]
  % (Activity as a percentage of that with Boc-Gln-Ala-Arg-MCA): 54.8%
[2]
  Activity (mU/ml): 17.7 mU/ml
